Data from PubChem BioAssay (NCI).
Where “and” joins values, the source holds several entries; their conditions need not be identical. Equal entries are not always repeated.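 Where inhibition never reached the appropriate level, the endpoint shown equals the highest concentration tested. Otherwise, values were interpolated linearly from a five-concentration, 48-hour dose response in 96-well plates. The concentration for 50% growth inhibition is given as GI50. TGI marks complete inhibition of growth.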

Legend:
Test in all cases: NCI anticancer screen, dose series, 48 h
[1] = system: SR leukemia
[2] = system: OVCAR-3 ovarian
[3] = system: UACC-62 melanoma
[4] = system: MOLT-4 leukemia
[5] = system: UO-31 renal
[6] = system: BT-549 breast
[7] = system: A498 renal
[8] = system: UACC-257 melanoma
[9] = system: DU-145 prostate
[10] = system: MALME-3M melanoma

Row | Structure (SMILES) | GI50 [1] | TGI [1] | GI50 [2] | TGI [2] | GI50 [3] | TGI [3] | GI50 [4] | TGI [4] | GI50 [5] | TGI [5] | GI50 [6] | TGI [6] | GI50 [7] | TGI [7] | GI50 [8] | TGI [8] | GI50 [9] | TGI [9] | GI50 [10] | TGI [10]
1 | Oc1c(CN2CCOCC2)cc(COCc2ccccc2)c2cccnc12 | 0.681 µM | 17.9 µM | 2.49 µM | > 100 µM | 2.24 µM | 8.91 µM | 2.57 µM | 17.7 µM | 0.351 µM | 9.36 µM | 3.19 µM | 81.8 µM | 16.5 µM | > 100 µM | 2.58 µM | 7.84 µM | 4.73 µM | > 100 µM | 2.84 µM | > 100 µM
2 | CCCCCc1c(C)[nH]c(/C=C2\N=C(c3ccc[nH]3)C=C2OCc2ccccc2)c1C | 0.0226 µM and 0.025 µM |  | 0.0447 µM and 0.0264 µM | 0.463 µM and 0.139 µM | 0.023 µM | 0.0538 µM and 0.0506 µM | 0.0365 µM and 0.0402 µM | 1.33 µM and 7.14 µM | 0.103 µM and 0.0318 µM | 0.282 µM and 0.128 µM | 0.234 µM and 0.119 µM | 1.78 µM and 1.18 µM | 0.0411 µM and 0.0298 µM | 0.74 µM and 0.219 µM | 0.191 µM and 0.0767 µM | 1.53 µM and 0.668 µM | 0.0581 µM and 0.0366 µM | 1.62 µM and 1.08 µM | 0.116 µM and 0.0585 µM | 0.494 µM and 0.209 µM
3 | CCOc1cc(C(C)(C)C)ccc1C1=N[C@@](C)(c2ccc(Cl)cc2)[C@@](C)(c2ccc(Cl)cc2)N1C(=O)N1CCN(CCS(C)(=O)=O)CC1 | 0.198 µM | 5.26 µM | 3.14 µM | 9.33 µM | 0.793 µM | 3 µM | 0.751 µM | 3.96 µM | 0.361 µM | 1.63 µM | 3.24 µM | 10 µM | 0.655 µM | 5.27 µM | 1.1 µM | 3.72 µM | 4.85 µM | 16.1 µM | 0.535 µM | 6.07 µM
4 | O=C1c2ccccc2-c2c1c1ccccc1c(=O)n2-c1ccccc1 |  | > 100 µM |  | 34 µM |  | > 54.2 µM |  | > 100 µM |  | 23.5 µM |  | > 52 µM |  | 60.7 µM |  | > 100 µM |  | > 100 µM |  | > 100 µM
5 | N#Cc1c2c(c(-c3cccs3)n(C3OC(CO)C(O)C(O)C3O)c1=S)CCc1ccccc1-2 (centres undefined) |  | > 100 µM |  | > 100 µM |  | > 100 µM |  | > 100 µM |  | > 100 µM |  | > 100 µM | 5.6 µM and 15.7 µM | > 100 µM |  | > 100 µM |  | > 100 µM |  | > 100 µM
6 | CCCCOc1ccc(/C=N/Nc2cc(C)nc3ccc(Cl)cc23)cc1 | 0.501 µM | 3.13 µM | 2.03 µM | 3.78 µM | 1.61 µM | 3.02 µM | 1.7 µM | 3.61 µM | 1.56 µM | 2.93 µM | 1.76 µM | 3.43 µM | 1.52 µM | 2.93 µM | 1.61 µM | 3.11 µM | 1.82 µM | 3.71 µM | 1.85 µM | 3.38 µM
7 | CO[C@H](C(=O)O)[C@@H]1Cc2cc3cc(OC4CC(OC5CC(O)C(O)C(C)O5)C(O)C(C)O4)c(C)c(O)c3c(O)c2C(=O)[C@H]1OC1CC(OC2CC(OC3CC(C)(O)C(O)C(C)O3)C(O)C(C)O2)C(O)C(C)O1 (some centres undefined) | 0.133 µM | 8.37 µM | 0.28 µM | 2.04 µM | 0.108 µM | 0.496 µM | 0.272 µM | 6.41 µM | 0.637 µM | 5.33 µM | 0.136 µM | 1.13 µM | 0.135 µM | 0.773 µM | 0.38 µM | > 32.5 µM | 0.364 µM | > 32.5 µM | 0.205 µM | 1.4 µM
8 | CC[C@H](NC(=O)[C@H](CS(=O)(=O)CC1CC1)N[C@@H](c1ccc(F)cc1)C(F)(F)F)C(=O)C(=O)NC1CC1 | 98.4 µM | > 100 µM | > 100 µM | > 100 µM | > 100 µM | > 100 µM | 32.8 µM | > 100 µM | > 100 µM | > 100 µM | > 100 µM | > 100 µM | > 100 µM | > 100 µM | > 100 µM | > 100 µM | > 100 µM | > 100 µM | > 100 µM | > 100 µM
9 | O=c1c2c3c(sc2n2c(-c4ccc(Br)cc4)nnc2n1Cc1ccccc1)CCCC3 | 4.76 µM | 23.6 µM | 6.24 µM | 20 µM | 4.39 µM | 17.2 µM | 3.84 µM | 91.6 µM | 11.3 µM | 41.1 µM | 6.04 µM | 19.8 µM | 10.9 µM | 22.9 µM |  | 11.9 µM | 9.72 µM | 22.9 µM | 3.19 µM | 19.5 µM
10 | COc1ccc(NC(=O)/C=C(C)/C=C/C=C(C)\C=C\C2=C(C)CCCC2(C)C)cc1 | 28.8 µM | 80.8 µM | 70.4 µM | > 100 µM | 24.6 µM | > 100 µM | 55.1 µM | > 100 µM | > 100 µM | > 100 µM | > 100 µM | > 100 µM | > 100 µM | > 100 µM | 14.1 µM | > 100 µM | > 100 µM | > 100 µM | 41.2 µM | > 100 µM
11 | Cn1ncc(-c2ccc3c(=O)[nH]nc(CN)c3c2)c1-c1c(F)cc2ccccc2c1C#N | 1.1 µM | 13.1 µM | 6.53 µM | 19.5 µM | 10.2 µM | 23.6 µM | 2.29 µM | 12.6 µM | 7.62 µM | 20.6 µM | 7.15 µM | 20.2 µM | 11.7 µM | 23.9 µM | 7.28 µM | 20.8 µM | 8.59 µM | 21.1 µM | 4.57 µM | 17.6 µM
12 | CC1(C)[C@@H](OC(N)=O)C=C[C@]2(C=O)[C@H]3CC[C@]4(C)[C@@H](c5ccc(=O)oc5)[C@@H](Cl)C[C@]4(O)C3=CC[C@@H]12 | 0.00566 µM | 0.0154 µM | 0.00329 µM | 0.00828 µM | 0.00491 µM | 0.0105 µM | < 0.0025 µM | 0.00724 µM | 0.00524 µM | 0.0124 µM | 0.00491 µM | 0.0106 µM | 0.00594 µM | 0.0177 µM | 0.00565 µM | 0.0141 µM | 0.0041 µM | 0.00785 µM | 0.00525 µM | 0.0109 µM
13 | Oc1ccc(Cl)cc1-c1cc(-c2ccc(F)cc2)n[nH]1 | 1.24 µM | > 100 µM | 1.39 µM | 3.53 µM | 2.42 µM | 9.5 µM | 2.8 µM | 41.4 µM | 1.21 µM | 3.78 µM | 3.59 µM | 16.6 µM | 2.21 µM | 6.85 µM | 2.96 µM | 21 µM | 3.04 µM | 10.8 µM | 3.26 µM | 9.66 µM
